In ChEMBL document CHEMBL1862790, “Optimisation of fenarimol series for the treatment of Chagas disease”:
pIC50: −log10 of the molar value.

Columns and labels:
Trypanosoma cruzi [1] = test: microbe, parasite or virus in culture; assay type: functional, organism-based, Tulahuen LacZ, Clone C4; conditions: Trypanosoma cruzi, Tulahuen LacZ, Clone C4
Trypanosoma cruzi [2] = test: microbe, parasite or virus in culture; assay type: functional, Tulahuen LacZ, Clone C4; conditions: Trypanosoma cruzi, Tulahuen LacZ, Clone C4
[3] = DNDI: Cytotoxicity against L-6 rat myoblasts from skeletal muscle cells; conditions: L6 rat skeletal muscle myoblast cells

SMILES | pIC50 (Trypanosoma cruzi [1]) | IC90 (Trypanosoma cruzi [2]) [nM] | pIC50 ([3]; IC50) | pIC50 [3]
OC(c1ccc(Cl)cc1)(c1ccc(Cl)cc1)c1cccc(F)c1 | 6.25 | 840 | 4.27 | –
CC(C)S(=O)(=O)N1CCC(NC(c2cnccn2)c2ccc(F)cc2F)CC1 (configuration not stated) | 6.47 | 790 | < 4.00 | –
O=C(OCc1ccccc1)N1CCN(C(c2cccnc2)c2ccc(Cl)cc2F)CC1 (configuration not stated) | 7.55 | 88 | 4.22 | –
CS(=O)(=O)N1CCN(C(c2cncnc2)c2ccc(C(F)(F)F)cc2F)CC1 (configuration not stated) | 7.61 | 72.5 | < 4.00 | –
NC(=O)c1ccc(C(O)(c2ccc(Cl)cc2)c2cccnc2)c(F)c1 (configuration not stated) | 6.18 | 790 | < 4.00 | –
CN(C)C(=O)N1CCN(C(c2ccc(Cl)cc2)c2cncnc2)CC1 (configuration not stated) | 6.21 | > 1000 | < 4.00 | –
CCNC(=O)N1CCN(C(c2cncnc2)c2ccc(Cl)cc2F)CC1 (configuration not stated) | 6.54 | 770 | < 4.00 | –
O=C(NC1CCCC1)N1CCN(C(c2ccc(Cl)cc2)c2cncnc2)CC1 (configuration not stated) | 6.64 | 620 | < 4.00 | –
O=S(=O)(NC1CCN(C(c2ccc(C(F)(F)F)cc2)c2cnccn2)CC1)c1ccc(C(F)(F)F)cc1 (configuration not stated) | 6.23 | > 1000 | 4.74 | –
CC(C)Oc1ccc(C(c2cccnc2)N2CCC(NC(=O)C3CC3)CC2)cc1 (configuration not stated) | 6.42 | 860 | < 4.00 | –
CN(C)C(=O)c1cccc(C(O)(c2ccc(Cl)cc2)c2cccnc2)c1 (configuration not stated) | 6.74 | 410 | < 4.00 | –
CN(C)C(=O)NC1CCN(C(c2ccc(C(F)(F)F)cc2)c2cnccn2)CC1 (configuration not stated) | 6.60 | > 1000 | < 4.00 | –
CC(C)c1ccc(S(=O)(=O)NC2CCN(C(c3ccc(C(F)(F)F)cc3)c3cnccn3)CC2)cc1 (configuration not stated) | 6.28 | > 1000 | 4.74 | –
CC(C)CS(=O)(=O)NC(c1ccc(C(F)(F)F)cc1)c1cnccn1 (configuration not stated) | < 6.00 | > 1000 | < 4.00 | –
O=S(=O)(c1ccc(C(F)(F)F)cc1)N1CCN(C(c2ccc(Cl)cc2)c2cncnc2)CC1 (configuration not stated) | 6.54 | > 1000 | 4.24 | –
CCN(CC)C(=O)NC1CCN(C(c2ccc(Cl)cc2)c2cncnc2)CC1 (configuration not stated) | 6.96 | 860 | < 4.00 | –
CNC(=O)c1cccc(C(O)(c2ccc(Cl)cc2)c2cccnc2)c1 (configuration not stated) | 6.23 | 995 | < 4.00 | –
O=C(NC(c1ccc(C(F)(F)F)cc1)c1cnccn1)C1CCCCC1 (configuration not stated) | 5.80 | 4790 | < 4.00 | –
O=C(NC1CCN(C(c2ccc(C(F)(F)F)cc2)c2cnccn2)CC1)c1ccccc1 (configuration not stated) | 6.70 | 720 | < 4.00 | –
O=C(NC1CCN(C(c2cnccn2)c2ccc(F)cc2F)CC1)C1CC1 (configuration not stated) | < 6.00 | > 1000 | < 4.00 | –

SMILES | pIC50 (Trypanosoma cruzi [1]) | IC90 (Trypanosoma cruzi [2]) [nM] | pIC50 ([3]; IC50) | pIC50 [3]
FC(F)(F)c1ccc(C(NCC2CCCCC2)c2cccnc2)cc1 (configuration not stated) | 6.96 | 220 | 4.27 | –
CC(C)C(=O)N1CCC(NC(c2ccc(C(F)(F)F)cc2)c2cnccn2)CC1 (configuration not stated) | 6.64 | 490 | < 4.00 | –
O=C(C1CC1)N1CCC(NC(c2cnccn2)c2ccc(F)cc2F)CC1 (configuration not stated) | 5.86 | 3860 | < 4.00 | –
OC(c1ccc(Cl)cc1)(c1ccc(Cl)cc1)c1cc(-c2ccccc2)on1 | < 5.00 | > 10000 | 4.27 | –
CON=C(C)c1cccnc1 | < 5.00 | > 10000 | – | < 4.00
N#Cc1ccc(C(O)(c2ccc(Cl)cc2)c2cccnc2)c(F)c1 (configuration not stated) | 7.59 | 110 | < 4.00 | –
OC(c1ccc(Cl)cc1)(c1cccnc1)c1sccc1Cl (configuration not stated) | 7.55 | 72 | 4.15 | –
O=S(=O)(NC1CCN(C(c2cnccn2)c2ccc(F)cc2F)CC1)c1ccccc1 (configuration not stated) | 6.33 | 880 | 4.17 | –
CON=C(Cc1ccccc1C)c1cccnc1 | < 6.00 | > 1000 | < 4.00 | –
Cc1ncsc1C(=O)NC1CCN(C(c2cncnc2)c2ccc(Cl)cc2F)CC1 (configuration not stated) | 7.11 | 436 | < 4.00 | –
O=C(NC1CCN(C(c2cncnc2)c2ccc(Cl)cc2F)CC1)c1ccc(F)cc1C(F)(F)F (configuration not stated) | 7.96 | 82.9 | 4.15 | –
CCC(=O)NC1CCN(C(c2cnccn2)c2ccc(F)cc2F)CC1 (configuration not stated) | < 6.00 | > 1000 | < 4.00 | –
Clc1ccc(C(c2cncnc2)N2CCNCC2)cc1 (configuration not stated) | < 6.00 | > 1000 | < 4.00 | –
O=S(=O)(c1ccc(Cl)cc1)N1CCN(C(c2cncnc2)c2ccc(Cl)cc2F)CC1 (configuration not stated) | 7.22 | 110 | < 4.00 | –
CC(C)Oc1ccc(C(c2cccnc2)N2CCN(C(=O)C(C)C)CC2)cc1 (configuration not stated) | 7.46 | 200 | < 4.00 | –
CC(C)(C)OC(=O)N1CCC(NC(c2ccc(C(F)(F)F)cc2)c2cncs2)CC1 (configuration not stated) | 8.15 | 19.5 | 4.21 | –
Fc1ccccc1C(c1ccc(C(F)(F)F)cc1)c1cccnc1 (configuration not stated) | 6.82 | 510 | – | 4.19
CON=C(Cc1ccccc1)c1cccnc1 | < 6.00 | > 1000 | < 4.00 | –
O=C(c1ccc(F)c(C(O)(c2ccc(Cl)cc2)c2cccnc2)c1)N1CCOCC1 (configuration not stated) | 7.32 | 190 | < 4.00 | –
O=C(C1CCC1)N1CCN(C(c2cncnc2)c2ccc(Cl)cc2F)CC1 (configuration not stated) | 6.38 | 868 | < 4.00 | –

The next lines start with results.

pIC50 (Trypanosoma cruzi [1]) | IC90 (Trypanosoma cruzi [2]) [nM] | SMILES | pIC50 ([3]; IC50) | pIC50 [3]
7.31 | 159 | N#Cc1ccc(C(c2cccnc2)N2CCN(c3nccs3)CC2)cc1 (configuration not stated) | < 4.00 | –
7.22 | 86 | N#Cc1ccnc(N2CCC(NC(c3ccc(Cl)cc3)c3cccnc3)CC2)n1 (configuration not stated) | 4.24 | –
6.85 | 380 | CC(C)Oc1ccc(C(NC2CCN(S(C)(=O)=O)CC2)c2cccnc2)cc1 (configuration not stated) | < 4.00 | –
7.11 | 230 | O=C(NC1CCN(C(c2ccc(C(F)(F)F)cc2)c2cnccn2)CC1)c1ccc(Cl)cc1 (configuration not stated) | 4.28 | –
7.41 | 368 | N#Cc1ccc(C(c2cccnc2)N2CCC(NC(=O)c3cccc(F)c3)CC2)cc1 (configuration not stated) | < 4.00 | –
6.48 | 910 | O=S(=O)(c1ccc(Cl)cc1)N1CCC(NC(c2ccc(C(F)(F)F)cc2)c2cnccn2)CC1 (configuration not stated) | < 4.00 | –
7.44 | 250 | CCN(CC)C(=O)N1CCC(NC(c2ccc(C(F)(F)F)cc2)c2cccnc2)CC1 (configuration not stated) | 4.04 | –
8.30 | 15 | CC(C)c1ccc(NC(=O)N2CCC(NC(c3ccc(Cl)cc3)c3cccnc3)CC2)cc1 (configuration not stated) | 4.71 | –
8.07 | 46 | CC(C)(C)OC(=O)NC1CCN(C(c2ccc(Cl)cc2)c2cccnc2)CC1 (configuration not stated) | 4.27 | –
7.72 | 53 | Fc1ccc(N2CCC(NC(c3cccnc3)c3ccc(Cl)cc3F)CC2)cc1 (configuration not stated) | 4.26 | –
7.19 | 156 | Cc1nc(C(=O)NC2CCN(C(c3ccc(C#N)cc3)c3cccnc3)CC2)cs1 (configuration not stated) | < 4.00 | –
7.32 | 93 | Fc1cc(Cl)ccc1C(NC1CCN(Cc2ccc(C(F)(F)F)cc2)CC1)c1cccnc1 (configuration not stated) | 4.58 | –
7.22 | 230 | CC(C)(C)NC(=O)N1CCC(NC(c2ccc(Cl)cc2)c2cccnc2)CC1 (configuration not stated) | < 4.00 | –
6.74 | 300 | O=C(C1CC1)N1CCC(NC(c2ccc(Cl)cc2)c2cccnc2)CC1 (configuration not stated) | < 4.00 | –
5.52 | 7810 | CC(=O)N1CCC(NC(c2ccc(C(F)(F)F)cc2)c2cnccn2)CC1 (configuration not stated) | < 4.00 | –
8.35 | 10 | Fc1cc(Cl)ccc1C(NC1CCN(c2ccccc2F)CC1)c1cccnc1 (configuration not stated) | 4.27 | –
6.92 | 300 | CN(C)C(=O)N1CCN(C(c2ccc(Cl)cc2)c2cccnc2)CC1 (configuration not stated) | < 4.00 | –
< 6.00 | > 1000 | N#Cc1ccc(C(c2cccnc2)N2CCN(C(=O)NC3CC3)CC2)cc1 (configuration not stated) | < 4.00 | –
7.24 | 110 | CC(C)Oc1ccc(C(c2cccnc2)N2CCC(NC(=O)Nc3ccccc3)CC2)cc1 (configuration not stated) | 4.13 | –
7.24 | 130 | O=C(N1CCCCC1)N1CCC(NC(c2ccc(Cl)cc2)c2cccnc2)CC1 (configuration not stated) | < 4.00 | –
7.77 | 100 | O=S1(=O)CCCN1C1CCN(C(c2ccc(Cl)cc2)c2cccnc2)CC1 (configuration not stated) | < 4.00 | –
6.49 | 910 | O=C(c1ccccc1)N1CCC(NC(c2ccc(C(F)(F)F)cc2)c2cnccn2)CC1 (configuration not stated) | < 4.00 | –
6.42 | 655 | Cn1cc(C(=O)N2CCC(NC(c3ccc(C(F)(F)F)cc3)c3cccnc3)CC2)cn1 (configuration not stated) | < 4.00 | –
8.35 | 10.4 | N#Cc1ccc(C(c2cccnc2)N2CCC(NC(=O)c3c(F)cccc3C(F)(F)F)CC2)cc1 (configuration not stated) | < 4.00 | –
6.28 | 900 | O=S(=O)(c1ccc(Cl)cc1)N1CCC(NC(c2cnccn2)c2ccc(F)cc2F)CC1 (configuration not stated) | 4.11 | –
6.23 | 968 | Cc1nc(C(=O)N2CCC(NC(c3ccc(C(F)(F)F)cc3)c3cccnc3)CC2)co1 (configuration not stated) | < 4.00 | –
6.82 | 550 | O=C(C1CC1)N1CCC(NC(c2ccc(C(F)(F)F)cc2)c2cccnc2)CC1 (configuration not stated) | < 4.00 | –
7.26 | 180 | O=S(=O)(c1ccc(C(F)(F)F)cc1)N1CCN(C(c2ccc(Cl)cc2)c2cccnc2)CC1 (configuration not stated) | 4.29 | –
7.00 | > 1000 | O=C(Nc1ccccc1)NC1CCN(C(c2ccc(Cl)cc2)c2cncnc2)CC1 (configuration not stated) | 4.26 | –
